Assay results published in patent US11433136B2, “Polyacetal polymers, conjugates, particles and uses thereof” (THE GENERAL HOSPITAL CORPORATION, priority 2015, dated 2022).

Test system: AK4.4 tumors
Experiment: Orthotopic AK4.4 pancreatic (PDAC) tumors in lean and obese mice
Assay type: in vivo, mice (FVB)
Method: Diet started at six weeks of age, continued for ten weeks (C57BL/6 and FVB), at which time tumors were implanted, and then continued until the end of experiments. In the spontaneous tumor models, diets were administered until tumor collection. Mice genetically deficient for leptin (ob/ob) on a standard chow for seven weeks gained weight compared to age matched WT mice (n=8-10/group for C57Bl/6, FVB and ob/ob, 4-10/group for KPC, 7-21/group for iKRAS). Left bars represent mice fed a low-fat diet, right bars represent mice fed a high fat diet for all groups except C57/B6 on the far right of the graph, in which the right bar represents the ob/ob mice. […] PAN02 and AK4.4 syngeneic tumors were orthotopically implanted in C57BL/6 and FVB mice respectively at ten weeks of diet (lean diet, left bars; and obese diet or ob/ob mice, right bars); ob/ob mice were implanted with PAN02 tumors at seven weeks of age. Tumors were collected 21 days later. Obese animals presented with higher tumor weights than lean counterparts in all models (n=8-10/group). FIG. 7D is representative images of mesenteric peritoneal dissemination in lean and obese mice implanted with PAN02 tumors. Mesenteries collected at the same time as tumors in FIG. 7C. FIG. 7E is a graph showing the quantification of mesenteric peritoneal metastasis in the PAN02 model. FIG. 7F is a graph showing the quantification of retro-peritoneal metastasis in the AK4.4 model. Data are shown as mean±standard error of the mean (SEM). P values were determined by the Student t-test. *, P<0.05; **, P<0.01; ***, P<0.001.
Expression of genes associated with AT-1 pathway activation and fibrosis/desmoplasia is increased in PAN02 (FIG. 10A) and AK4.4 (FIG. 10B) tumors from obese mice (right bars) in comparison to lean mice (left bars). […] Data normalized to lean group. 3-4 samples per group pooled in one single PCR array fibrosis gene set plate. […] Of note, similar to αSMA, the changes of AT1, as well as other desmoplasia related markers, were relatively mild in the lean setting. […] Data are shown as mean±SEM with the exception of FIGS. 10A and 10B. P values were determined by the Student t-test unless otherwise stated. *, P<0.05; **, P<0.01, ***p<0.001.
Quantification of total and lectin-positive vessel area in AK4.4 tumors. Obese mice (right bars) presented with decreased perfusion (n=5-12 tumors/group) compared to lean mice (left bars). […] Obese mice presented with increased expression of the hypoxia marker Hif-1α in tumors. […] Doxorubicin quantified via immunofluorescence (n=4 tumors/group). […] AK4.4 syngeneic tumors were orthotopically implanted at ten weeks of diet; treatments were initiated at day 7 post-implantation and tumors resected at day 19. […] Data in FIGS. 17A, 17C and 17D, are shown as mean±SEM. P values were determined by the Student t-test unless otherwise stated. *, P<0.05.
FIGS. 18A, 18B, 18C, 18D, 18E, 18F, and 18G show the additional effects of AT-1 inhibition on obesity-aggravated desmoplasia, perfusion and drug delivery. […] Scale bar: 30 μm (left panels), 500 μm (right panel). […] FIG. 18E is a western blot showing a decrease in αSMA expression in PAN02 tumors implanted in obese AT1 KO mice compared with obese WT mice (bands are part of a larger WB. Lean control group is depicted in FIG. 18F). […] Data in FIGS. 18D, 18F and 18G are shown as mean±SEM. In FIGS. 18C and 18F, far left bars represent lean mice, middle left bars represent lean mice treated with losartan, middle right bars represent obese mice, and […] bars represent obese mice treated with losartan.

SMILES | response to chemotherapy (tumor growth) (obese vs lean, treatment from day 7, tumors resected day 19) | tumor αSMA protein expression (lean and obese) | mRNA expression of markers of tumor fibrosis/desmoplasia (lean mice) | response to chemotherapy with AT1 blockade (losartan with 5-FU, lean and obese) | chemotherapy delivery to tumors (obese but not lean mice) | tumor perfusion (obese but not lean mice) | cytokine expression in tumors (multiplex protein) (obese mice) | mRNA expression of markers of tumor fibrosis/desmoplasia (obese mice) | tumor fibrillar collagen (SHG) and collagen-1 expression (obese mice) | expression of AT1 signaling and desmoplasia-related markers (western blotting) (obese vs lean)
O=c1[nH]cc(F)c(=O)[nH]1 [Example 5-FU, 5-fluorouracil] | less effective in preventing tumor growth in obese animals |  |  |  |  |  |  |  |  | 
CCCCc1nc(Cl)c(CO)n1Cc1ccc(-c2ccccc2-c2nn[nH]n2)cc1 [losartan] |  | reduced tumor αSMA protein expression more dramatically in the obese setting | did not alter these markers in lean mice | improved response to chemotherapy in both lean and obese settings but with higher magnitude in obese setting | increase chemotherapy delivery | tended to improve perfusion | reduced the expression of multiple cytokines including IL-1 | reverted by losartan | reduced tumor fibrillar collagen (top panels) as well as collagen-1 expression | normalized the obesity-augmented expression
